# Laboratory results published in patent publication US6660752B2, “2,6-Substituted chroman derivatives useful as beta-3 adrenoreceptor agonists” (Bayer Pharmaceuticals Corporation, priority 2001, dated 2003).
# Where a name gives a salt, the structure may show the parent alone.
# Target: T1, human beta-3-adrenergic receptor (Homo sapiens, UniProt P13945)
# T1 construct: stably express full-length human beta-3-adrenergic receptor; expressed in transfected cells; host or cells: Chinese hamster ovary (CHO) cells
# T1 sequence (P13945 whole entry): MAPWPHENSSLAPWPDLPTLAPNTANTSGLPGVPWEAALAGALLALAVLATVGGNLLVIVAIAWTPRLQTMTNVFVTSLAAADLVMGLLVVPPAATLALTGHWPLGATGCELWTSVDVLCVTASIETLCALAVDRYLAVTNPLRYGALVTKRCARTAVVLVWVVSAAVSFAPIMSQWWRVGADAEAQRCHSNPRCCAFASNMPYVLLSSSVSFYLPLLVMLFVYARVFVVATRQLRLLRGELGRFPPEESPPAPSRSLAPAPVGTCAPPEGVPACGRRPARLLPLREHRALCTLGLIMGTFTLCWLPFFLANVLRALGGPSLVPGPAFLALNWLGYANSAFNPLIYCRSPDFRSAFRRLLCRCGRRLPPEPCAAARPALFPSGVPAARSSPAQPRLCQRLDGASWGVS
# Test: cAMP production (beta-3 agonist activity) in CHO cells stably expressing human beta-3-adrenergic receptor, cAMP SPA
# Type: cell-based
# Conditions: CHO cells expressing full-length human beta-3-adrenergic receptor, 30 min incubation, 10 μM to 3 nM, read-out: Beta-3 Agonistic Activity: Compounds with EC50 values >1 μM
# Method: Chinese hamster ovary (CHO) cells that stably express full-length human beta-3-adrenergic receptor (Granneman et al., Mol. Pharmacol. 44:264-270, 1993) can be used in the following procedure. The cell line is grown in 90% F12 nutrient mixture (HAM), 10% fetal bovine serum, 100 units/ml penicillin G sodium, […] streptomycin sulfate, and 2 mM L-glutamine at 37° C. in 95% air and 5% CO2. The transfected cell line is maintained with G-418 (800 μg/ml).
# To test the agonist activity, cells are exposed to test compound and then assayed for cAMP production. CHO cells (100 μl) are plated at 5×10^4 cells/well of a 96-well plate (Costar, Cambridge, Mass.) to achieve 70% confluency the next day. After overnight incubation at 37° C., media is removed and the cells are treated for 30 minutes at 37° C. with KRP buffer (120 mM NaCl, 5.1 mM KCl, 0.6 mM MgSO4.7H2O, 0.8 mM CaCl2.H2O, […] phosphate buffer, […] Hepes pH 7.4)+[…] IBMX ([…]), +1% DMSO, +/− test compounds ([…]). Test compounds are assayed from 10 μM to 3 nM with 3-fold serial dilutions. The control agonist, isoproterenol (10 mM stock in 1.1 mM ascorbate), is assayed by 3-fold dilution beginning at 1 μM. After a 30-minute incubation with the test compounds, the buffer/compound mixture is removed. The cells are lysed and cAMP levels are measured using the cAMP SPA screening assay system (Amersham, Arlington Heights, Ill.). The cAMP values are then plotted to determine the EC50 of each compound tested.
row,Structure (SMILES),EC50 [nM]
1,"O[C@@H](CNC[C@H]1CCc2cc(-c3ccc(Cl)c(Cl)c3)ccc2O1)c1cccnc1 [Example 39, (1R)-2-({[(2R)-6-(3,4-dichlorophenyl)-3,4-dihydro-2H-chromen-2-yl]methyl}amino)-1-(3-pyridinyl)ethanol]",> 1000
2,Nc1ccc([C@@H](O)CNC[C@H]2CCc3cc(C(=O)N4CCCC[C@H]4C(=O)O)ccc3O2)cn1 [Example 364],> 1000
3,Cc1ccc(-c2ccc3c(c2)CC[C@H](CNC[C@H](O)c2cccnc2)O3)cc1 [Example 45],> 1000

# Same assay, conditions: CHO cells expressing full-length human beta-3-adrenergic receptor, 30 min incubation, 10 μM to 3 nM, read-out: Beta-3 Agonistic Activity: Compounds with EC50 values ≦1 μM
row,Structure (SMILES),EC50 [nM]
1,O=S(=O)(Nc1cnccc1C(F)(F)F)c1ccc(-c2ccc3c(c2)CC[C@H](CNC[C@H](O)c2cccnc2)O3)cc1 [Example 251],≤ 1000
2,O=C(Nc1cccc(F)c1)NS(=O)(=O)c1ccc(-c2ccc3c(c2)CC[C@H](CNC[C@H](O)c2cccnc2)O3)cc1 [Example 338],≤ 1000
3,"COc1cc(-c2ccc3c(c2)CC[C@H](CNC[C@H](O)c2cccnc2)O3)ccc1C(=O)O [Example 184, 4-[(2R)-2-({[(2R)-2-hydroxy-2-(3-pyridinyl)ethyl]amino}methyl)-3,4-dihydro-2H-chromen-6-yl]-2-methoxybenzoic acid]",≤ 1000
4,O=C(O)c1ccc(-c2ccc3c(c2)CC[C@H](CNC[C@@H](O)c2c(F)ccc(Cl)c2F)O3)cc1 [Example 348],≤ 1000
5,"O=C(NS(=O)(=O)c1ccc(-c2ccc3c(c2)CC[C@H](CNC[C@H](O)c2cccnc2)O3)cc1)C1CC1 [Example 285, N-(cyclopropylcarbonyl)-4-[(2R)-2-({[(2R)-2-hydroxy-2-(3-pyridinyl)ethyl]amino}methyl)-3,4-dihydro-2H-chromen-6-yl]benzenesulfonamide]",≤ 1000
6,O=C(Nc1ccc(Cl)cc1)NS(=O)(=O)c1ccc(-c2ccc3c(c2)CC[C@H](CNC[C@H](O)c2cccnc2)O3)cc1 [Example 340],≤ 1000
7,"COc1cccc(C(=O)NS(=O)(=O)c2ccc(-c3ccc4c(c3)CC[C@H](CNC[C@H](O)c3cccnc3)O4)cc2)c1 [Example 293, 4-[(2R)-2-({[(2R)-2-hydroxy-2-(3-pyridinyl)ethyl]amino}methyl)-3,4-dihydro-2H-chromen-6-yl]-N-(3-methoxybenzoyl)benzenesulfonamide]",≤ 1000
8,O=C1CCc2cc(NS(=O)(=O)c3ccc(-c4ccc5c(c4)CC[C@H](CNC[C@H](O)c4cccnc4)O5)cc3)ccc21 [Example 258],≤ 1000
9,O[C@@H](CNC[C@H]1CCc2cc(-c3ccc(F)cc3)ccc2O1)c1cccnc1 [Example 48],≤ 1000
10,O=S(=O)(Nc1nc2ccccc2s1)c1ccc(-c2ccc3c(c2)CCC(CNC[C@H](O)c2cccnc2)O3)cc1 (stereo partly shown) [Example 276],≤ 1000
11,CN(C)CC(=O)NS(=O)(=O)c1cccc(-c2ccc3c(c2)CC[C@H](CNC[C@H](O)c2cccnc2)O3)c1 [Example 304],≤ 1000
12,"Cc1ccc(NC(=O)NS(=O)(=O)c2cccc(-c3ccc4c(c3)CC[C@H](CNC[C@H](O)c3cccnc3)O4)c2)cc1 [Example 324, 3-((1R)-1-hydroxy-2-{[((2R)-6-{3-[({[(4-methylphenyl)amino]carbonyl}amino)sulfonyl]phenyl}-3,4-dihydro-2H-chromen-2-yl)methyl]amino}ethyl)pyridine Hydrochloride]",≤ 1000
13,CCC(=O)NS(=O)(=O)c1cccc(-c2ccc3c(c2)CC[C@H](CNC[C@H](O)c2cccnc2)O3)c1 [Example 305],≤ 1000
14,"Nc1ccc([C@@H](O)CNC[C@H]2CCc3cc(-c4ccc(C(=O)O)cc4)ccc3O2)cn1 [Example 385, 4-[(2R)-2-({[(2R)-2-(6-amino-3-pyridinyl)-2-hydroxyethyl]amino}methyl)-3,4-dihydro-2H-chromen-6-yl]benzoic Acid]",≤ 1000
15,COC(=O)c1ccc(-c2ccc3c(c2)CC[C@H](CNC[C@H](O)c2ccc(N)nc2)O3)cc1 [Example 381],≤ 1000
16,CC(C)NC(=O)NS(=O)(=O)c1ccc(-c2ccc3c(c2)CC[C@H](CNC[C@H](O)c2cccnc2)O3)cc1 [Example 339],≤ 1000
17,"COCC(=O)NS(=O)(=O)c1cccc(-c2ccc3c(c2)CCC(CNC[C@H](O)c2cccnc2)O3)c1 (stereo in doubt) [Example 283, 3-[(2S)-2-({[(2R)-2-hydroxy-2-(3-pyridinyl)ethyl]amino}methyl)-3,4-dihydro-2H-chromen-6-yl]-N-(methoxyacetyl)benzenesulfonamide]",≤ 1000

row,Structure (SMILES),EC50 [nM]
1,Cc1ccc(S(=O)(=O)CC(=O)c2ccc(-c3ccc4c(c3)CC[C@H](CNC[C@H](O)c3cccnc3)O4)cc2)cc1 [Example 309],≤ 1000
2,O=C(Nc1ccc(F)cc1)NS(=O)(=O)c1cccc(-c2ccc3c(c2)CC[C@H](CNC[C@H](O)c2cccnc2)O3)c1 [Example 333],≤ 1000
3,O[C@@H](CNC[C@H]1CCc2cc(-c3cccc4ccccc34)ccc2O1)c1cccnc1 [Example 54],≤ 1000
4,Nc1ccc([C@@H](O)CNC[C@H]2CCc3cc(-c4cccc(C(=O)N5CCCC5)c4)ccc3O2)cn1 [Example 383],≤ 1000
5,"O=S(=O)(Nc1ncccn1)c1ccc(-c2ccc3c(c2)CC[C@H](CNC[C@H](O)c2cccnc2)O3)cc1 [Example 249A, 4-[(2R)-2-({[(2R)-2-hydroxy-2-(3-pyridinyl)ethyl]amino}methyl)-3,4-dihydro-2H-chromen-6-yl]-N-(2-pyrimidinyl)benzenesulfonamide]",≤ 1000
6,Cc1cccc(C(=O)NS(=O)(=O)c2cccc(-c3ccc4c(c3)CC[C@H](CNC[C@H](O)c3cccnc3)O4)c2)c1 [Example 297],≤ 1000
7,"COc1cc(OC)nc(NS(=O)(=O)c2ccc(-c3ccc4c(c3)CC[C@H](CNC[C@H](O)c3cccnc3)O4)cc2OC(F)(F)F)n1 [Example 274, N-(4,6-dimethoxy-2-pyrimidinyl)-4-[(2R)-2-({[(2R)-2-hydroxy-2-(3-pyridinyl)ethyl]amino}methyl)-3,4-dihydro-2H-chromen-6-yl]-2-(trifluoromethoxy)benzenesulfonamide]",≤ 1000
8,"Nc1ccc([C@@H](O)CNC[C@H]2CCc3cc(C(=O)NC4(C(=O)O)CC4)ccc3O2)cn1 [Example 366, 1-({[(2R)-2-({[(2R)-2-(6-amino-3-pyridinyl)-2-hydroxyethyl]amino}methyl)-3,4-dihydro-2H-chromen-6-yl]carbonyl}amino)cyclopropanecarboxylic acid]",≤ 1000
9,"Nc1ccc([C@@H](O)CNC[C@H]2CCc3cc(C(=O)NCC(=O)O)ccc3O2)cn1 [Example 362, N-{[(2R)-2-({[(2R)-2-(6-amino-3-pyridinyl)-2-hydroxyethyl]amino}methyl)-3,4-dihydro-2H-chromen-6-yl]carbonyl}glycine]",≤ 1000
10,"CC(C)Oc1cc(-c2ccc3c(c2)CC[C@H](CNC[C@H](O)c2cccnc2)O3)ccc1C(=O)O [Example 188, 4-[(2R)-2-({[(2R)-2-hydroxy-2-(3-pyridinyl)ethyl]amino}methyl)-3,4-dihydro-2H-chromen-6-yl]-2-isopropoxybenzoic acid]",≤ 1000
11,"O=C(Nc1ccc(F)cc1)NS(=O)(=O)c1ccc(-c2ccc3c(c2)CC[C@H](CNC[C@H](O)c2cccnc2)O3)cc1 [Example 327, 3-((1R)-2-{[((2R)-6-{4-[({[(4-fluorophenyl)amino]carbonyl}amino)sulfonyl]phenyl}-3,4-dihydro-2H-chromen-2-yl)methyl]amino}-1-hydroxyethyl)pyridine]",≤ 1000
12,O=C(NS(=O)(=O)c1cccc(-c2ccc3c(c2)CC[C@H](CNC[C@H](O)c2cccnc2)O3)c1)c1cccc(Cl)c1 [Example 302],≤ 1000
13,"Cc1ccc(-c2cc(-c3ccc4c(c3)CC[C@H](CNC[C@H](O)c3cccnc3)O4)ccc2C(=O)O)cc1 [Example 205, 5-[(2R)-2-({[(2R)-2-hydroxy-2-(3-pyridinyl)ethyl]amino}methyl)-3,4-dihydro-2H-chromen-6-yl]-4′-methyl-1,1′-biphenyl-2-carboxylic Acid]",≤ 1000
14,"COc1ccc(Oc2cc(-c3ccc4c(c3)CC[C@H](CNC[C@H](O)c3cccnc3)O4)ccc2C(=O)O)cc1 [Example 196, 4-[(2R)-2-({[(2R)-2-hydroxy-2-(3-pyridinyl)ethyl]amino}methyl)-3,4-dihydro-2H-chromen-6-yl]-2-(4-methoxyphenoxy)benzoic acid]",≤ 1000
15,"CC1(O)C(=O)NN(c2cccc(-c3ccc4c(c3)CC[C@@H](CNC[C@H](O)c3cccnc3)O4)c2)C1=O (stereo partly drawn) [Example 314, 4-hydroxy-1-{3-[(2S)-2-({[(2R)-2-hydroxy-2-(3-pyridinyl)ethyl]amino}methyl)-3,4-dihydro-2H-chromen-6-yl]phenyl}-4-methyl-3,5-pyrazolidinedione Dihydrochloride]",≤ 1000
16,COC(=O)c1cccc(-c2ccc3c(c2)CC[C@H](CNC[C@H](O)c2ccc(N)nc2)O3)c1 [Example 382],≤ 1000
17,O=C(Nc1ccccc1)NS(=O)(=O)c1cccc(-c2ccc3c(c2)CC[C@H](CNC[C@H](O)c2cccnc2)O3)c1 [Example 332],≤ 1000
